Measured values as given in patent publication US5496697A, “Methods and apparatus for detecting the effect of cell affecting agents on living cells” (priority 1993, dated 1996).
Like-named read-outs stand apart in the source and are kept apart here.

What was measured:
[1] = cited from earlier work
[2] = test system: murine macrophage-like line P388D1; test: acidification rate of P388D1 cells trapped in etched wells; format: cell-based
Description: For many types of mammalian cells, a confluent monolayer (equivalent to about 10^7 cells/mL) commonly produces acidification rates within a factor of two of 100 μV/s. At 59 mV per pH and medium buffer capacity of 1 mM, this corresponds to a calculated net rate of H+ production of ~1·10^8 /s for a typical cell. The metabolic sources of these protons depend on the nutrients in the culture medium and the metabolic pathways that are active in the cells. Some insight into this can be gained using auxiliary biochemical measurements and specific metabolic poisons.
It is reversible, with a recovery time of about 20 min. after the removal of the uncoupler. Dose-response experiments show a maximum stimulation of the acidification rate near 2-5 μM CCCP, Presumably the mechanism is a combination of increased CO2 production and the stimulation of glycolysis to maintain homeostasis.

[3] = test system: normal human keratinocytes; test: metabolic rate of normal human keratinocytes exposed to irritants in the micro flow chamber (silicon sensor); format: cell-based; details: for IC50: Homo sapiens, Keratinocyte, read-out: -log10 (MRD50) (converted)
[4] = test system: MDCK cells; test: metabolic rate of MDCK cells exposed to MgCl; format: cell-based, canine; details: 10 mM MgCl
[5] = test system: PGE1 receptor; test: metabolic rate of M1C-2 cells stimulated through the PGE1 receptor; format: cell-based, mouse; details: PGE1, FIG. 27
[6] = test system: MDCK cells; test: metabolic rate of MDCK cells grown on the silicon sensor surface; format: cell-based, canine
[7] = test system: MDCK cells; test: metabolic rate of MDCK cells grown on a cover slip; format: cell-based, canine; details: for inhibition at 10000 µM: 10 mM theophylline
[8] = test system: MDCK cells; test: steady-state potential of MDCK cells grown on the silicon sensor surface; format: cell-based, canine
Source text: It contains information on the pH of the small aqueous compartment between the cells and the sensor, and it contains information about trans-cellularpotentials, which are essentially batteries in series with the electronic circuit of the sensor.
The steadystate potential reported by the sensor (with fluid flow on) decreased gradually from the time the sensor was activated until the PMA was introduced. […] This signal is a composite of the trans-cellular potential and the sub-cellular pH (changes in the latter corresponding to 59 mV per pH unit).

[9] = test system: MES-SA; details: previously characterized; cited from earlier work
[10] = test system: Dx5; test: cytotoxicity in Dx5 in the silicon microphysiometer; details: for time at which cytotoxicity is manifest: 100 μM, Dx5
[11] = test system: MES-SA; test: cytotoxicity in MES-SA in the silicon microphysiometer
[12] = test system: MDCK cells; test: cells; details: Canis lupus familiaris
Description: MDCK cells in a confluent T-75 flask were trypsinized in order to remove them from their growth container. The cells were centrifuged at 2000 RPM for 5 minutes and the supernatant was discarded. The cells were resuspended in 5 mL of medium and centrifuged for 5 minutes at 3000 RPM. […] The cells were centrifuged for 3 minutes at 3000 RPM to pellet the cells. A 2 μL aliquot was taken directly from the cell pellet and spread over an approximate area of 40 mm^2 on the silicon sensor surface (in a partially assembled chamber).

[13] = test system: Proteus mirabilis; format: cell-based; details: carbon source in medium; FIG. 22
Source text: While this method of serial delivery of selective substrates has certain potential advantages, parallel delivery of selective substrates to separate catches of bacteria could also be useful under certain circumstances. Furthermore, if bacteria are used for screening for antibiotic susceptibility or antibiotic activity, parallel delivery to separate catches may well be more appropriate because of potential problems of intereactions of drugs.
The bacteria, E. coli and Proteus mirabilis , were prepared as suspensions of about 5×10^8 cells/mL in a growth medium and then diluted into a sterile test medium containing glucose (Bactopeptone, 2 g/L; NACl, 5 g/L; K2 HPO4, 1.7 mM; glucose, 1 g/L; pH 7.3 ). With the controlling electrode piston in the raised position, as disclosed in pending U.S. patent application, Ser. No. 876,925, filed Jun. 20, 1986, now U.S. Pat. No. 5,292,846 one mL of bacterial suspension containing a known number of bacteria was flowed through the device such that the cells were retained adjacent to the silicon sensor surface by a Nucleopore membrane situated parallel to the surface. The cells were pulsed with the same glucose containing test medium, the piston was then lowered to decrease the volume surrounding the cells, and the change in pH due to bacterial metabolism was monitored. […] After lowering the piston the pH change was again monitored. […]

[14] = test system: E. coli; test: response of E. coli to antibiotics in the flow cell; format: cell-based; details: FIG. 24
[15] = test system: L cells
[16] = test system: L cells; test: cells; details: Mus musculus, 8 min, read-out: peak metabolic activity
[17] = classification by in vivo tests such as the Draize test
[18] = concentrations necessary to depress metabolism of keratinocytes

Molecule: CC(C)=O [Acetone]
- In-Vivo Irritancy [1, 17]: Moderate-mild

Molecule: N#CC(C#N)=NNc1cccc(Cl)c1 [CCCP, carbonylcyanide chlorophenylhydrazone]
- recovery time after removal of the uncoupler ([2]; 20 μmM CCCP): about 20 min.
- stimulation of acidification rate ([2]; 20 μmM CCCP, FIG. 42): prompt, faster than the resolution of the apparatus
- concentration of maximum stimulation of the acidification rate ([2]; dose-response experiments): 2 to 5 µM

Molecule: C[S+](C)[O-] [Dimethyl sulfoxide]
- recovery of metabolic rate after washout of irritant ([3]; separate test, FIG. 13): recover from DMSO but not from ethanol was shown
- In-Vivo Irritancy ([1]; in vivo): Mild

Molecule: CCO [Ethanol]
- recovery of metabolic rate after washout of irritant ([3]; FIG. 12): substantial recovery
- recovery of metabolic rate after washout of irritant ([3]; separate test, FIG. 13): not from ethanol
- In-Vivo Irritancy [1, 17]: Moderate-mild

Molecule: CO [Methanol]
- In-Vivo Irritancy [1, 17]: Moderate-mild

Molecule: [Cl-].[Cl-].[Mg+2] [MgCl, magnesium chloride]
- increase in metabolic rate vs. medium only [4]: 40-46%

Molecule: CCCCCCCCCCCCOS(=O)(=O)[O-].[Na+] [Na dodecyl sulfate, sodium dodecyl sulfate]
- IC50 [3]: 0.126 mM
- In-Vivo Irritancy [1, 17]: Severe-moderate

Molecule: CCCCC[C@H](O)/C=C/[C@H]1[C@H](O)CC(=O)[C@@H]1CCCCCCC(=O)O [PGE1, prostaglandin E1]
- increase in metabolic rate at peak [5]: 80%
- time of peak [5]: approximately 1000 seconds
- time of return to base line metabolic rates [5]: 4000 s

Molecule: CCCCCCCCCCCCCC(=O)O[C@@H]1[C@@H](C)[C@@]2(O)[C@@H](C=C(CO)C[C@]3(O)C(=O)C(C)=C[C@@H]23)[C@@H]2C(C)(C)[C@]12OC(C)=O [PMA, Phorbol myristate acetate]
- rise in metabolic rate at the peak ([6]; 10 ng/ml PMA): more than a doubling
- time of peak of metabolic rate ([6]; 10 ng/ml PMA): near an hour later
- metabolic rate upon addition of PMA ([7]; cover slip, data not shown): increase in metabolic rate
- steady-state potential reported by the sensor ([8]; 10 ng/ml PMA): dropped quickly to a minimum
- time to minimum of steady-state potential ([8]; 10 ng/ml PMA): about forty
- steady-state potential after removal of PMA ([8]; by the end of the experiment): returned to a value near its initial one

Molecule: CC(O)CO (stereo not drawn) [Propylene glycol]
- In-Vivo Irritancy ([1]; in vivo): Mild

Molecule: N=C(N)NC(=O)c1nc(Cl)c(N)nc1N [amiloride]
- inhibition at 1500 µM ([6]; Canis lupus familiaris, MDCK, 1.5 mM amiloride, immediate, read-out: decrease in apparent metabolic rate vs. medium only): 20%
- activation at 1500 µM ([7]; Canis lupus familiaris, MDCK, 1.5 mM amiloride, gradual, read-out: increase of metabolic rate above medium only): ≤ 16%
- metabolic rate after exposure was ceased ([7]; after 1.5 mM amiloride): returned to the original control value and then gradually continued to decline

Molecule: COc1cccc2c1C(=O)c1c(O)c3c(c(O)c1C2=O)C[C@@](O)(C(=O)CO)C[C@@H]3O[C@H]1C[C@H](N)[C@H](O)[C@H](C)O1 [doxorubicin]
- sensitivity of MES-SA [9]: sensitive
- time at which decreased acidification rates are evident ([10]; 1 μM doxorubicin, Dx5, FIG. 45): > 50 h
- time at which cytotoxicity is manifest [10]: 2.5 h
- time at which decreased acidification rates are evident ([11]; 1 μM doxorubicin, FIG. 45): 15 h
- time at which cytotoxicity is manifest ([11]; 100 μM): 0.5 h

Molecule: CNC[C@H](O)c1ccc(O)c(O)c1 [epinephrine]
- activation at 3 µM ([6]; Canis lupus familiaris, MDCK, read-out: additional increase in metabolic rate on re-exposure): 7%
- activation at 3 µM ([6]; Canis lupus familiaris, MDCK, read-out: increase in metabolic rate): 20%
- activation at 3 µM ([6]; Canis lupus familiaris, MDCK, read-out: increase in metabolic rate over the control rate on re-exposure): 20%
- activation at 3 µM ([6]; Canis lupus familiaris, MDCK, read-out: metabolic rate above control rate after removal): 12%
- inhibition at 208 µM ([12]; read-out: decrease in metabolic rate vs. medium only): 3%
- inhibition at 3 µM ([12]; read-out: decrease in metabolic rate vs. rate immediately after removal of the higher concentration): 4.5%

Molecule: O=C[C@H](O)[C@@H](O)[C@H](O)[C@H](O)CO [glucose]
- change of pH [13]: decreased the pH

Molecule: CCCCO [n-Butanol, 1-butanol]
- IC50 [3, 18]: 20 mM
- In-Vivo Irritancy [1, 17]: Moderate

Molecule: CC[C@H](C)[C@@H]1NC(=O)[C@H](Cc2ccc(O)cc2)NC(=O)[C@@H](N)CSSC[C@@H](C(=O)N2CCC[C@H]2C(=O)N[C@@H](CC(C)C)C(=O)NCC(N)=O)NC(=O)[C@H](CC(N)=O)NC(=O)[C@H](CCC(N)=O)NC1=O [oxytocin]
- immediate change in metabolic rate [7]: did not result in any immediate change
- recovery of metabolic rate after removal [7]: 100%
- time to full recovery of metabolic rate after removal [7]: up to 10 minutes
- gradual decrease of metabolic rate ([7]; mdck, 1 µM): up to 10%

Molecule: CC1(C)S[C@@H]2[C@H](NC(=O)Cc3ccccc3)C(=O)N2[C@H]1C(=O)O [penicillin]
- response to antibiotic [14]: do not respond

Molecule: Cn1c(=O)c2[nH]cnc2n(C)c1=O [theophylline]
- activation at 111 µM ([6]; Canis lupus familiaris, MDCK, read-out: increase in metabolic rate vs. control values on removal, after 111 μM theophylline): 28%
- inhibition at 111 µM ([6]; Canis lupus familiaris, MDCK, 111 μM theophylline (therapeutic level), read-out: decrease in metabolic rate): ~10%
- inhibition at 10000 µM ([6]; Canis lupus familiaris, MDCK, 10 mM theophylline, read-out: decrease in metabolic rate vs. control value): 47%
- time of return of metabolic rate to the control value ([6]; after removal of 10 mM theophylline): ten
- inhibition at 10000 µM ([7]; Canis lupus familiaris, MDCK, initial, read-out: decrease in metabolic rate): 59%
- inhibition at 10000 µM ([7]; Canis lupus familiaris, MDCK, read-out: metabolic rate below the control value after gradual increase): 48%
- activation at 10000 µM ([7]; Canis lupus familiaris, MDCK, after 10 mM theophylline, read-out: increase of metabolic rate over the control value on removal): 30%

Molecule: NC(N)=O [urea]
- change of pH [13]: increases the pH

Molecule: CC(C)[C@@H]1NC(=O)[C@H](C)OC(=O)[C@@H](C(C)C)NC(=O)[C@@H](C(C)C)OC(=O)[C@H](C(C)C)NC(=O)[C@H](C)OC(=O)[C@@H](C(C)C)NC(=O)[C@@H](C(C)C)OC(=O)[C@H](C(C)C)NC(=O)[C@H](C)OC(=O)[C@@H](C(C)C)NC(=O)[C@@H](C(C)C)OC1=O [valinomycin]
- peak metabolic rate relative to the initial rate [15]: more than double the initial rate
- time of return of metabolic activity approximately to the initial value [15]: ≤ 20 min
- time to peak of metabolic activity [15]: four
- fold induction at 100 µM [16]: ~2.4

Molecule: NC(=O)CC[C@@H]1NC(=O)[C@H](Cc2ccccc2)NC(=O)[C@H](Cc2ccc(O)cc2)NC(=O)[C@@H](N)CSSC[C@@H](C(=O)N2CCC[C@H]2C(=O)N[C@@H](CCCN=C(N)N)C(=O)NCC(N)=O)NC(=O)[C@H](CC(N)=O)NC1=O [vasopressin]
- increase in metabolic rate over control values [6]: 14%
- increase in metabolic rate over the rate in 0.1 μM vasopressin [6]: 19%
- increase over the control rate value [6]: 42%
- increase in metabolic rate [7]: no increase in metabolic rate was observed

Molecule: CC[C@]1(O)C[C@H]2CN(CCc3c([nH]c4ccccc34)[C@@](C(=O)OC)(c3cc4c(cc3OC)N(C=O)[C@H]3[C@@](O)(C(=O)OC)[C@H](OC(C)=O)[C@]5(CC)C=CCN6CC[C@]43[C@@H]65)C2)C1 [vincristine]
- sensitivity of MES-SA [9]: sensitive
- time at which cytotoxicity is manifest [10]: 10 h
- time at which cytotoxicity is manifest ([11]; 100 μM vincristine, FIG. 46): 5 h

Molecule: benzalkonium chloride [Benzalkonium Cl]
- decrease of cellular metabolic rate between two successive administrations ([3]; 30 μg/ml): real decrease of cellular metabolic rate between the two administrations
- recovery of metabolic rate after washout of irritant ([3]; FIG. 12): no recovery was obtained
- -log10 (MRD50) [3, 18]: 4.1
- In-Vivo Irritancy [1, 17]: Severe

Molecule: polymyxin
- response to antibiotic [14]: do respond
